# Test results as given in US20210040118A1, “IMMUNOMODULATORS, COMPOSITIONS AND METHODS THEREOF” (BETTA PHARMACEUTICALS CO., LTD, priority 2018, published 2021).
# Target: T1, PD-1/PD-L1 (Homo sapiens, UniProt Q9NZQ7)
# T1 construct: Recombinant human PD-L1 protein (19-238) with a His-tag at the C-terminus; purchased AcroBiosystems PD1-H5229 (PD-L1); PD1-H5257 (PD-1)
# Test: PD-1/PD-L1 homogenous time-resolved fluorescence (HTRF) binding assay
# Conditions: recombinant human PD-L1 (19-238) His-tag / human PD-1 (25-167) Fc tag, class symbols
# Description: Resolved Fluorescence (HTRF) Binding Assay
# The assays were conducted in a standard black 384-well polystyrene plate with a final volume of 20 μL. Inhibitors were first serially diluted in DMSO and then added to the plate wells before the addition of other reaction components. The final concentration of DMSO in the assay was 1%. The assays were carried out at 25° C. in the PBS buffer (pH 7.4) with 0.05% Tween-20 and 0.1% BSA. Recombinant human PD-L1 protein (19-238) with a His-tag at the C-terminus was purchased from AcroBiosy stems (PD1-H5229). Recombinant human PD-1 protein (25-167) with Fc tag at the C-terminus was also purchased from AcroBiosystems (PD1-H5257). PD-L1 and PD-1 proteins were diluted in the assay buffer and 10 μL was added to the plate well. Plates were centrifuged and proteins were preincubated with inhibitors for 40 min. The incubation was followed by the addition of […] of HTRF detection buffer supplemented with Europium cryptate-labeled anti-human IgG (PerkinElmer-AD0212) specific for Fc and anti-His antibody conjugated to SureLight®-Allophycocyanin (APC, PerkinElmer-AD0059H). After centrifugation, the plate was incubated at 25° C. for 60 min. Before reading on a PHERAstar FS plate reader (665 nm/620 nm ratio). Final concentrations in the assay were […] PD1, 10 nM PD-L1, 1 nM europium anti-human IgG and 20 nM anti-His-Allophycocyanin. IC50 determination was performed by fitting the curve of percent control activity versus the log of the inhibitor concentration using the GraphPad Prism 5.0 software.
# Data obtained for the Example compounds using the PD-1/PD-L1 homogenous time-resolved fluorescence (HTRF) binding assay described in Example A is provided in Table 4.
# T1 sequence (Q9NZQ7 19-238): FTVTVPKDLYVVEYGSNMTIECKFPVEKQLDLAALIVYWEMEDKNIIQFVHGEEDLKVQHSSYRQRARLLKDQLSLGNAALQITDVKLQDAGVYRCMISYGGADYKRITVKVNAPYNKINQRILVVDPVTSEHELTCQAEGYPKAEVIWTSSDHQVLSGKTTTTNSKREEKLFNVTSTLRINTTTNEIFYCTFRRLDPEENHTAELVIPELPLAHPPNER
row,Compound,IC50
1,"1,1′-bis((6,7-dihydro-4H-512-thiazolo[5,4-c]pyridin-2-yl)methyl)-4,4′-biindoline [Example 46]",< 25 nM
2,"2-((3′-(6,6-dimethyl-5,6,7,8-tetrahydro-614-1,6-naphthyridin-7-ylium-2-carboxamido)-2,2′-dimethyl-[1,1′-biphenyl]-3-yl)carbamoyl)-6,6-dimethyl-5,6,7,8-tetrahydro-1,6-naphthyridin-6-ium chloride [Example 171]",< 25 nM
3,"Cc1c(NC(=O)c2nnc([C@@H]3CCCN3)s2)cccc1-c1cccc(NC(=O)c2nnc([C@@H]3CCCN3)s2)c1C [Example 3, N,N′-(2,2′-dimethyl-[1,1′-biphenyl]-3,3′-diyl)bis(5-((S)-pyrrolidin-2-yl)-1,3,4-thiadiazole-2-carboxamide)]",< 25 nM
4,"Cc1c(NC(=O)c2nc3c(s2)CN(CC(=O)O)CC3)cccc1-c1cccc(NC(=O)c2nc3c(s2)CN(CC(=O)O)CC3)c1C [Example 4, 2,2′-((((2,2′-dimethyl-[1,1′-biphenyl]-3,3′-diyl)bis(azanediyl))bis(carbonyl))bis(6,7-dihydrothiazolo[5,4-c]pyridine-2,5(4H)-diyl))diacetic acid]",< 25 nM
5,"Cc1c(-c2cccc(N(C)C(=O)c3cc4c(s3)CNCC4)c2C)cccc1N(C)C(=O)c1cn2c(n1)CNCC2 [Example 5, N-(2,2′-dimethyl-3′-(N-methyl-5,6,7,8-tetrahydroimidazo[1,2-a]pyrazine-2-carboxamido)-[1,1′-biphenyl]-3-yl)-N-methyl-4,5,6,7-tetrahydrothieno[2,3-c]pyridine-2-carboxamide]",100 to 200 nM
6,"Cc1c(Nc2nccc3cc(CNCCO)cnc23)cccc1-c1cccc(Nc2nccc3cc(NCCO)cnc23)c1C [Example 6, 2-(((8-((3′-((3-((2-hydroxyethyl)amino)-1,7-naphthyridin-8-yl)amino)-2,2′-dimethyl-[1,1′-biphenyl]-3-yl)amino)-1,7-naphthyridin-3-yl)methyl)amino)ethan-1-ol]",< 25 nM
7,"Cc1c(NC(=O)c2ncc(CNCCO)s2)cccc1-c1cccc(NC(=O)c2ncc(CNCCO)s2)c1C [Example 7, N,N′-(2,2′-dimethyl-[1,1′-biphenyl]-3,3′-diyl)bis(5-(((2-hydroxyethyl)amino)methyl)thiazole-2-carboxamide)]",< 25 nM
8,"Cc1c(NC(=O)c2cn3c(n2)CNCC3)cccc1-c1cccc(NC(=O)c2cn3c(n2)CNCC3)c1C [Example 8, N,N′-(2,2′-dimethyl-[1,1′-biphenyl]-3,3′-diyl)bis(5,6,7,8-tetrahydroimidazo[1,2-a]pyrazine-2-carboxamide)]",< 25 nM
9,"Cc1c(NC(=O)c2nnc([C@H](C)N)o2)cccc1-c1cccc(NC(=O)c2nnc([C@H](C)N)o2)c1C [Example 9, N,N′-(2,2′-dimethyl-[1,1′-biphenyl]-3,3′-diyl)bis(5-((S)-1-aminoethyl)-1,3,4-oxadiazole-2-carboxamide)]",< 25 nM
10,"Cc1c(NC(=O)c2cn3c(n2)CNCC3)cccc1-c1cccc(NC(=O)c2nc3c(s2)CNCC3)c1C [Example 10, N-(2,2′-dimethyl-3′-(5,6,7,8-tetrahydroimidazo[1,2-a]pyrazine-2-carboxamido)-[1,1′-biphenyl]-3-yl)-4,5,6,7-tetrahydrothiazolo[5,4-c]pyridine-2-carboxamide]",< 25 nM
11,"Cc1c(NC(=O)c2nc3c(s2)CNCC3)cccc1-c1cccc(NC(=O)c2nc3ccc(N)cc3s2)c1C [Example 11, N-(3′-(6-aminobenzo[d]thiazole-2-carboxamido)-2,2′-dimethyl-[1,1′-biphenyl]-3-yl)-4,5,6,7-tetrahydrothiazolo[5,4-c]pyridine-2-carboxamide]",100 to 200 nM
12,"Cc1c(NC(=O)c2nc3cc(N)ccc3[nH]2)cccc1-c1cccc(NC(=O)c2nc3c(s2)CNCC3)c1C [Example 12, N-(3′-(5-amino-1H-benzo[d]imidazole-2-carboxamido)-2,2′-dimethyl-[1,1′-biphenyl]-3-yl)-4,5,6,7-tetrahydrothiazolo[5,4-c]pyridine-2-carboxamide]",25 to 100 nM
13,"Cc1c(NC(=O)c2nc3c(o2)CNCC3)cccc1-c1cccc(NC(=O)c2nc3c(o2)CNCC3)c1C [Example 13, N,N′-(2,2′-dimethyl-[1,1′-biphenyl]-3,3′-diyl)bis(4,5,6,7-tetrahydrooxazolo[5,4-c]pyridine-2-carboxamide)]",25 to 100 nM
14,"Cc1c(NC(=O)c2nc3c(o2)CNCC3)cccc1-c1cccc(NC(=O)c2nc3c(s2)CNCC3)c1C [Example 14, N-(2,2′-dimethyl-3′-(4,5,6,7-tetrahydrothiazolo[5,4-c]pyridine-2-carboxamido)-[1,1′-biphenyl]-3-yl)-4,5,6,7-tetrahydrooxazolo[5,4-c]pyridine-2-carboxamide]",< 25 nM
15,"Cc1c(NC(=O)c2cc3c(s2)CCNC3)cccc1-c1cccc(NC(=O)c2nc3c(s2)CNCC3)c1C [Example 15, N-(2,2′-dimethyl-3′-(4,5,6,7-tetrahydrothieno[3,2-c]pyridine-2-carboxamido)-[1,1′-biphenyl]-3-yl)-4,5,6,7-tetrahydrothiazolo[5,4-c]pyridine-2-carboxamide]",< 25 nM
16,"Cc1c(NC(=O)c2nnc([C@H](C)N3CCCC[C@H]3C(=O)O)o2)cccc1-c1cccc(NC(=O)c2nnc([C@H](C)N3CCCC[C@H]3C(=O)O)o2)c1C [Example 16, (2S,2'S)-1,1′-((1S,1'S)-((((2,2′-dimethyl-[1,1′-biphenyl]-3,3′-diyl)bis(azanediyl))bis(carbonyl))bis(1,3,4-oxadiazole-5,2-diyl))bis(ethane-1,1-diyl))bis(piperidine-2-carboxylic acid)]",< 25 nM
17,"Cc1c(NC(=O)c2nnc([C@H](C)N3CCCC[C@H]3C(=O)O)s2)cccc1-c1cccc(NC(=O)c2nnc([C@H](C)N3CCCC[C@H]3C(=O)O)s2)c1C [Example 17, (2S,2'S)-1,1′-((1S,1'S)-((((2,2′-dimethyl-[1,1′-biphenyl]-3,3′-diyl)bis(azanediyl))bis(carbonyl))bis(1,3,4-thiadiazole-5,2-diyl))bis(ethane-1,1-diyl))bis(piperidine-2-carboxylic acid)]",< 25 nM
18,"Cc1c(NC(=O)c2nnc(CN)o2)cccc1-c1cccc(NC(=O)c2nnc(CN)o2)c1C [Example 18, N,N′-(2,2′-dimethyl-[1,1′-biphenyl]-3,3′-diyl)bis(5-(aminomethyl)-1,3,4-oxadiazole-2-carboxamide)]",25 to 100 nM
19,"Cc1c(NC(=O)c2nnc(C(C)N)o2)cccc1-c1cccc(NC(=O)c2nnc(C(C)N)o2)c1C (centres unmarked) [Example 19, N,N′-(2,2′-dimethyl-[1,1′-biphenyl]-3,3′-diyl)bis(5-(1-aminoethyl)-1,3,4-oxadiazole-2-carboxamide)]",25 to 100 nM
20,"Cc1c(NC(=O)c2nnc(CN)s2)cccc1-c1cccc(NC(=O)c2nnc(CN)s2)c1C [Example 20, N,N′-(2,2′-dimethyl-[1,1′-biphenyl]-3,3′-diyl)bis(5-(aminomethyl)-1,3,4-thiadiazole-2-carboxamide)]",< 25 nM
21,"Cc1c(-c2cccc(N(C)C(=O)c3nc4ccc(N)cc4s3)c2C)cccc1N(C)C(=O)c1nc2c(s1)CNCC2 [Example 21, N-(3′-(6-amino-N-methylbenzo[d]thiazole-2-carboxamido)-2,2′-dimethyl-[1,1′-biphenyl]-3-yl)-N-methyl-4,5,6,7-tetrahydrothiazolo[5,4-c]pyridine-2-carboxamide]",100 to 200 nM
22,"Cc1c(-c2cccc(N(C)Cc3nc4ccc(N)cc4s3)c2C)cccc1N(C)Cc1nc2c(s1)CNCC2 [Example 22, N3-((6-aminobenzo[d]thiazol-2-yl)methyl)-N3,N3′,2,2′-tetramethyl-N3′-((4,5,6,7-tetrahydrothiazolo[5,4-c]pyridin-2-yl)methyl)-[1,1′-biphenyl]-3,3′-diamine]",> 200 nM
23,"Cc1c(-c2cccc(N(C)C(=O)c3nc4c(s3)CNCC4)c2C)cccc1N(C)C(=O)c1nc2c(s1)CNCC2 [Example 23, N,N′-(2,2′-dimethyl-[1,1′-biphenyl]-3,3′-diyl)bis(N-methyl-4,5,6,7-tetrahydrothiazolo[5,4-c]pyridine-2-carboxamide)]",100 to 200 nM

# Same assay, conditions: recombinant human PD-L1 (19-238) His-tag / human PD-1 (25-167) Fc tag, numeric values
row,Compound,IC50
1,"Cc1c(NC(=O)c2nc3c(s2)CNCC3)cccc1-c1ccccc1 [Com. EX. No. 1, N-(2-methyl-[1,1′-biphenyl]-3-yl)-4,5,6,7-tetrahydrothiazolo[5,4-c]pyridine-2-carboxamide, reference compound]",212 nM
2,"Cc1c(NC(=O)c2nc3c(s2)CNCC3)cccc1-c1cccc(NC(=O)c2nc3c(s2)CNCC3)c1C [Example 1, N,N′-(2,2′-dimethyl-[1,1′-biphenyl]-3,3′-diyl)bis(4,5,6,7-tetrahydrothiazolo[5,4-c]pyridine-2-carboxamide)]",0.48 nM
3,"Cc1c(NC(=O)c2nc3c(s2)CN(C)CC3)cccc1-c1cccc(NC(=O)c2nc3c(s2)CN(C)CC3)c1C [Example 2, N,N′-(2,2′-dimethyl-[1,1′-biphenyl]-3,3′-diyl)bis(5-methyl-4,5,6,7-tetrahydrothiazolo[5,4-c]pyridine-2-carboxamide)]",0.74 nM
